# Reference: the supplement of paper PMC10307832
# What was measured:
# Test in all cases: relative viability (nuclei count vs DMSO), 5 days (fraction); higher = more cells survive
# [1] = compound: CC1=C(C(=NN1)C)CC2=C(C3=C(S2)N(C(=O)N(C3=O)C)CC(C)C)C(=O)N4C[C@@H](CO4)O + CC(=O)c1c(C)c2cnc(Nc3ccc(N4CCNCC4)cn3)nc2n(C2CCCC2)c1=O [Palbociclib] (partner 0.5 µM)
# Outline: (§1)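 The day after seeding in 1536-well plates, lung cancer cell lines were treated by pin tool with a single drug, or with a fixed anchor-drug dose together with five library-drug doses (not always all listed) in √10 steps. After 5 days, a combined fix-and-stain solution (final 0.05% Triton X-100, 1% formaldehyde, 1 ug/ml Hoechst) was added. Nuclei counted on 4× images gave relative viability as treated counts over vehicle counts, reported as the median of duplicate plates.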
# IDH-C35 + Pemetrexed = compound: Cc1ccccc1C(C(=O)NC1CCCCC1)N(C(=O)Cn1ccnc1C)c1cccc(F)c1 [IDH-C35] + Nc1nc2[nH]cc(CCc3ccc(C(=O)N[C@@H](CCC(=O)O)C(=O)O)cc3)c2c(=O)[nH]1 [Pemetrexed] (partner 0.2 µM)
# Outline: as §1
# [2] = compound: CC1=C(C(=NN1)C)CC2=C(C3=C(S2)N(C(=O)N(C3=O)C)CC(C)C)C(=O)N4C[C@@H](CO4)O + Cc1nc(NC(=O)N2CCC[C@H]2C(N)=O)sc1-c1ccnc(C(C)(C)C(F)(F)F)c1 [Alpelisib] (partner 2 µM)
# Outline: as §1
# IDH-C35 + Pictilisib = compound: Cc1ccccc1C(C(=O)NC1CCCCC1)N(C(=O)Cn1ccnc1C)c1cccc(F)c1 [IDH-C35] + CS(=O)(=O)N1CCN(Cc2cc3nc(-c4cccc5[nH]ncc45)nc(N4CCOCC4)c3s2)CC1 [Pictilisib] (partner 1 µM)
# Outline: as §1
Cell Line,relative viability ([1]; first compound 0.0025 µM),relative viability ([1]; first compound 0.007906 µM),relative viability ([1]; first compound 0.025 µM),relative viability ([1]; first compound 0.07906 µM),relative viability ([1]; first compound 0.25 µM),relative viability (IDH-C35 + Pemetrexed; first compound 0.08 µM),relative viability (IDH-C35 + Pemetrexed; first compound 0.253 µM),relative viability (IDH-C35 + Pemetrexed; first compound 0.8 µM),relative viability (IDH-C35 + Pemetrexed; first compound 2.53 µM),relative viability (IDH-C35 + Pemetrexed; first compound 8 µM),relative viability ([2]; first compound 0.0025 µM),relative viability ([2]; first compound 0.007906 µM),relative viability ([2]; first compound 0.025 µM),relative viability ([2]; first compound 0.07906 µM),relative viability ([2]; first compound 0.25 µM),relative viability (IDH-C35 + Pictilisib; first compound 0.08 µM),relative viability (IDH-C35 + Pictilisib; first compound 0.253 µM),relative viability (IDH-C35 + Pictilisib; first compound 0.8 µM),relative viability (IDH-C35 + Pictilisib; first compound 2.53 µM),relative viability (IDH-C35 + Pictilisib; first compound 8 µM)
NCI-H2342,0.514,0.562,0.442,0.502,0.593,0.78,0.742,0.775,0.768,0.679,,,,,,,,,,
SK-MES-1,0.358,0.336,0.319,0.329,0.333,0.91,0.988,0.925,0.861,0.874,0.964,0.997,1.04,0.878,1.01,0.335,0.414,0.358,0.343,0.295
HCC-366,0.377,0.406,0.387,0.372,0.523,0.143,0.156,0.171,0.188,0.176,0.489,0.475,0.396,0.54,0.49,0.12,0.132,0.169,0.151,0.178
201T,0.358,0.355,0.369,0.327,0.367,0.329,0.351,0.367,0.343,0.321,1.04,0.995,0.996,0.971,0.949,0.651,0.731,0.634,0.661,0.676
HCC-827,0.403,0.414,0.339,0.541,0.466,0.279,0.266,0.269,0.248,0.238,1.01,1.01,0.962,0.93,0.939,0.966,0.921,1.02,1.13,1.17
NCI-H647,0.376,0.409,0.441,0.518,0.287,0.186,0.161,0.175,0.171,0.167,1.16,1.03,1.19,1.32,1.75,0.445,0.411,0.339,,0.417
NCI-H2023,0.305,0.375,0.296,0.402,0.491,0.262,0.246,0.245,0.241,0.2,0.621,0.635,0.593,0.58,0.622,0.285,0.22,0.245,0.229,0.233
NCI-H520,0.256,0.225,0.259,0.239,0.204,0.776,0.548,0.715,0.699,0.622,0.835,1.04,0.612,0.536,0.836,0.211,0.283,0.283,0.238,0.317
RERF-LC-KJ,1.12,1.11,1.04,1.06,1.12,0.431,0.492,0.478,0.481,0.523,0.977,0.939,0.92,0.775,0.964,0.53,0.671,0.529,0.554,0.509
A-427,0.524,0.514,0.515,0.548,0.578,0.952,0.981,0.899,1.02,1.04,1.02,1.21,1.08,1.03,1.07,0.621,0.801,0.615,0.466,0.791
NCI-H441,0.245,0.217,0.255,0.237,0.215,0.256,0.272,0.269,0.292,0.244,0.83,0.602,0.616,1.06,0.902,0.588,0.562,0.456,0.506,0.446
NCI-H1703,,,,,,,,,,,0.366,0.211,0.32,0.309,0.299,0.235,0.264,0.285,0.262,0.206
NCI-H1792,0.777,0.747,0.665,0.604,0.627,1.03,0.711,0.721,0.899,0.919,0.82,0.624,0.699,0.58,0.555,0.231,0.3,0.251,0.345,0.277
Calu-6,,,,,,,,,,,1.3,0.898,0.892,0.895,1.09,0.875,0.895,0.881,0.877,0.898
SK-LU-1,0.375,0.349,0.294,0.278,0.281,1.06,0.983,1.03,1.05,0.887,0.879,0.565,0.537,0.782,0.582,0.535,0.483,0.641,0.606,0.63
PC-3 [JPC-3],0.528,0.502,0.539,0.533,0.524,1.05,1.06,1.17,1.29,1.21,1.02,1.03,1,1.01,1.06,0.802,0.772,0.687,0.844,0.703
EMC-BAC-2,0.549,0.543,0.499,0.569,0.549,0.457,0.477,0.473,0.463,0.398,0.809,0.854,0.721,0.691,0.814,0.493,0.55,0.51,0.487,0.521
LK-2,0.642,0.715,0.646,0.626,0.457,0.259,0.322,0.255,0.22,0.202,1.06,1.03,1.09,1.05,1.08,0.584,0.501,0.456,0.496,0.565
NCI-H2126,0.356,0.335,0.368,0.327,0.369,0.68,0.703,0.696,0.597,0.668,0.773,0.847,0.732,0.736,0.682,0.494,0.508,0.48,0.507,0.472

Cell Line,relative viability ([1]; first compound 0.0025 µM),relative viability ([1]; first compound 0.007906 µM),relative viability ([1]; first compound 0.025 µM),relative viability ([1]; first compound 0.07906 µM),relative viability ([1]; first compound 0.25 µM),relative viability (IDH-C35 + Pemetrexed; first compound 0.08 µM),relative viability (IDH-C35 + Pemetrexed; first compound 0.253 µM),relative viability (IDH-C35 + Pemetrexed; first compound 0.8 µM),relative viability (IDH-C35 + Pemetrexed; first compound 2.53 µM),relative viability (IDH-C35 + Pemetrexed; first compound 8 µM),relative viability ([2]; first compound 0.0025 µM),relative viability ([2]; first compound 0.007906 µM),relative viability ([2]; first compound 0.025 µM),relative viability ([2]; first compound 0.07906 µM),relative viability ([2]; first compound 0.25 µM),relative viability (IDH-C35 + Pictilisib; first compound 0.08 µM),relative viability (IDH-C35 + Pictilisib; first compound 0.253 µM),relative viability (IDH-C35 + Pictilisib; first compound 0.8 µM),relative viability (IDH-C35 + Pictilisib; first compound 2.53 µM),relative viability (IDH-C35 + Pictilisib; first compound 8 µM)
NCI-H3122,0.165,0.241,0.205,0.176,0.209,0.203,0.182,0.203,0.207,0.2,0.813,0.816,0.788,0.783,0.706,0.628,0.572,0.592,0.611,0.598
NCI-H1975,0.624,0.706,0.66,0.623,0.699,0.284,0.284,0.281,0.288,0.32,0.668,0.538,0.723,0.719,0.745,0.293,0.322,0.288,0.319,0.326
NCI-H1944,0.328,0.335,0.337,0.314,0.363,0.591,0.67,0.562,0.612,0.568,0.858,0.858,0.921,0.847,0.761,0.38,0.364,0.323,0.343,0.346
LU99A,0.476,0.493,0.41,0.436,0.391,0.191,0.216,0.173,0.187,0.191,0.559,0.589,0.581,0.568,0.611,0.337,0.299,0.326,0.317,0.361
SW 1573,0.469,0.439,0.42,0.407,0.47,0.692,0.889,0.879,0.789,0.763,0.756,0.699,0.764,0.715,0.917,0.468,0.502,0.439,0.59,0.476
NCI-H2347,0.426,0.4,0.431,0.36,0.445,0.424,0.418,0.452,0.417,0.43,1.16,1.01,1.11,0.964,0.964,0.627,0.603,0.813,0.788,0.899
NCI-H1299,,,,,,,,,,,1.07,1.08,1.01,1.09,1.11,0.818,0.671,0.96,0.759,0.745
NCI-H727,0.697,0.655,0.676,0.682,0.679,,,,,,0.535,0.512,0.731,0.55,0.666,0.528,0.522,0.54,0.441,0.43
ABC-1,0.72,0.445,,0.638,0.729,,,,,,1.04,1.07,1.14,1.01,0.944,0.675,0.667,0.617,0.984,0.908
NCI-H1650,0.344,0.351,0.374,0.327,0.347,0.334,0.4,0.323,0.428,0.362,,,,,,0.607,0.576,0.557,0.4,0.511
ChaGo-K-1,0.956,0.937,0.943,0.878,0.931,0.244,0.27,0.273,0.265,0.248,,,,,,0.451,0.71,0.742,0.681,0.918
NCI-H1648,0.261,0.271,0.297,0.207,0.283,,0.758,0.712,0.807,0.529,,,,,,,,,,
NCI-H596,,,,,,0.473,0.475,0.529,0.549,0.455,0.474,0.53,0.482,0.567,0.589,0.434,0.442,0.435,0.537,0.384
NCI-H1563,,,,,,0.827,0.803,0.652,0.854,0.613,1,0.847,0.954,0.959,0.893,0.646,0.682,0.662,0.619,0.619
A549,,,,,,,,,,,0.838,0.96,0.744,0.758,0.961,0.532,0.504,0.595,0.472,0.401
NCI-H522,1.08,1.02,0.852,0.521,0.618,0.874,1.04,0.818,0.793,1.05,,,,,,,,,,
SW 900,0.541,0.583,0.624,0.497,0.651,0.51,0.459,,0.506,0.485,,,,,,,,,,
IA-LM,,,,,,,,,,,0.832,0.812,0.858,0.749,0.991,0.381,0.382,0.33,0.325,0.322
EBC-1,,,,,,,,,,,0.973,0.973,0.765,0.822,0.814,0.397,0.414,0.339,0.353,0.377
